Measured values from patent publication US20040152126A1, “Methods of screening for cox-2 inhibitors” (priority 1999, published 2004).

Columns and labels:
[1] = system: endogenous cox-2 gene (mRNA of cox-2); assay: RT-PCR analysis of the expression of cox-2 mRNA in Jurkat cells; assay type: cell-based, human; conditions: PMA 10 ng/ml alone or with calcium ionophore A23187 1 μM, FIG. 3(A)
Experimental: In order to study the regulation of the expression of the endogenous cox-2 gene in the Jurkat cell line, the analysis of the expression of its mRNA was performed by experiments with RT-PCR. At the same time, in order to validate the prom2-1906-LUC construct and to check that the regulation of the cloned promoter is as expected, experiments were carried out of transitory transfection of the prom2-1906-LUC construct using the Jurkat cell line. In both experiments, the cells were treated with compounds that stimulate and inhibit the induction of the promoter of cox-2.
Treatment with activator compounds were carried out using the phorbol ester PMA (Phorbol 12-Myristate 13-Acetate) (10 ng/ml) (Sigma) and the combination of PMA and Calcium ionophore A23187 (1 μM) (Sigma), hereinafter PMA+Ion.
Treatment with drugs that inhibit the induction by PMA+Ion were carried out with cyclosporin A (CsA) (100 ng/ml) or the synthetic glucocorticoide Dexamethasone (Dex) (1 μM) (Sigma).
The results obtained from the analysis by RT-PCR of the expression of mRNA of cox-2 in Jurkat cells are presented in FIG. 3, where the following can be observed:
As a control in both cases, the result obtained for the non-inducible mRNAs of the cox-1 isoform and for the glycerol aldehyde phosphate dehydrogenase (GAPDH) are shown.

cox-2 promoter = assay: Luciferase activity in stable Jurkat-1906LUC clones (Jurkat-C3-, F9-, C7-1906LUC)
Experimental: The transfection was carried out by means of the technique of electroporation in cuvettes of 0.4 cm (BioRad) with 15×10^6 cells in 0.5 ml of complete medium [RMPI medium supplemented with 10% of foetal serum, L-glutamine 2mM and a mixture of antibiotics] […] After this period, the cells were electroporated in a Gene Pulser II (BioRad) apparatus at 1.500 μFaradays of capacitance and a current of 280 V. Next, the cells were incubated over ice for 10 minutes before adding 10 ml of complete medium. The cells were cultured in this medium in 75 cm^2 culture flasks (Nunc) for 48 hours in a cell incubator at 37° C. with a humidity of 95% and 5% of Co2. At this time, the medium was changed for complete medium with no antibiotics to which hygromycin (Boehringer Mannheim) was added at a concentration of 200 μg/ml. The cells were cultured in this medium for 30 days with successive changes of medium. […] For this, 1×10^6 cells were lysed in 50 μl of lysis buffer (Promega) and with the extracts obtained, the luciferase activity was determined using the reagents contained in the kit of the “Luciferase Assay System” [Promega].
These clones were grown until obtaining at least 1×10^6 cells with which measurement of the luciferase activity could be performed as described earlier. […]

## CCCCCCCCCCCCCC(=O)O[C@@H]1[C@@H](C)[C@@]2(O)[C@@H](C=C(CO)C[C@]3(O)C(=O)C(C)=C[C@@H]23)[C@@H]2C(C)(C)[C@]12OC(C)=O [PMA, Phorbol 12-Myristate 13-Acetate]
[1]
  expression of the mRNA of cox-2: slight increase
cox-2 promoter; three stable clones, treatment of 6 hours, FIG. 7
  increase of the basal values of luciferase activity: 3 to 6 times

## Oc1ccc(C=Cc2cc(O)cc(O)c2)cc1 [Resveratrol]
cox-2 promoter; stable Jurkat clones, 1 hour pre-treatment with compound, then PMA+Ion for 5 hours, FIGS. 8-10
  inhibition of the stimulation obtained with PMA+Ion (luciferase activity): produces an inhibition of the stimulation obtained with PMA+Ion
